Data taken from US9914730B2, “Azaquinazoline inhibitors of Atypical protein Kinase C” (Ignyta, Inc., priority 2012, dated 2018).
pIC50: −log10 of the molar value. Where a name gives a salt, the structure may show the parent alone.

biological target: T1, full-length human PKCι (Homo sapiens, UniProt P41743); experiment: PKCι IC50 IMAP assay, full-length PKCι at 150 μM ATP; format: biochemical; conditions: read-out: IC50 in IMAP assay against full length PKCi at 150 μM ATP
T1 construct: Recombinant, full-length human PKCι expressed in Sf21 insect cells is also commercially available; purchased; host or cells: Sf21 insect cells
T1 sequence (P41743 1-596): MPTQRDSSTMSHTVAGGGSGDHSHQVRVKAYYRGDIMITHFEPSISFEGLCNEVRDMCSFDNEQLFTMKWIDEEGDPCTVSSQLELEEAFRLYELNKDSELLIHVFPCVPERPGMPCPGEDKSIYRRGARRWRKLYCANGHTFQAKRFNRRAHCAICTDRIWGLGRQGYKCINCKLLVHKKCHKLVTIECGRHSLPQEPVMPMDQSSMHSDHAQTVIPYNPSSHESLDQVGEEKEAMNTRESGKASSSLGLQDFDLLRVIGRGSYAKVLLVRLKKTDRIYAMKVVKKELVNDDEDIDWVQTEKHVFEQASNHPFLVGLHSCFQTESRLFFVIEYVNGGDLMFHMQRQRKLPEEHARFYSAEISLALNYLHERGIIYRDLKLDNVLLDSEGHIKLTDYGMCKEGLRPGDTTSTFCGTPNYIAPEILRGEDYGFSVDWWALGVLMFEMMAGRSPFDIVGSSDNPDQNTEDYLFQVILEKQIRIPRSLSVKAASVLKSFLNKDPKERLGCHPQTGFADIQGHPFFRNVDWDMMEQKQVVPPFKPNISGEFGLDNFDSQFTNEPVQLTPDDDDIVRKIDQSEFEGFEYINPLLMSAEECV
In short: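 Full-length human PKCι from Sf21 cells, typically 15 pM, with 100 nM 5FAM-PKCε pseudosubstrate peptide and 150 μM ATP (5× apparent KM), 60 min at room temperature, 4% DMSO. IMAP fluorescence polarisation read-out; inhibition normalised to no-compound and no-enzyme controls, IC50 from curve fit.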

| Compound | pIC50 |
| --- | --- |
| COc1cncc2nc(-c3ccnc(Nc4ccc(C#N)cn4)c3)nc(N3CCNCC3)c12 [Example 353, 6-[4-(5-Methoxy-4-piperazin-1-yl-pyrido[3,4-d]pyrimidin-2-yl)-pyridin-2-ylamino]-nicotinonitrile] | > 7.00 |
| Cc1cc2c(-c3nc(N4CCNCC4)c4c(C5CCC5)cncc4n3)ccnc2[nH]1 [Example 2112, 5-Cyclobutyl-2-(2-methyl-1H-pyrrolo[2,3-b]pyridin-4-yl)-4-piperazin-1-yl-pyrido[3,4-d]pyrimidine] | > 7.00 |
| CN1CCN(c2ccc(Nc3cc(-c4nc(N[C@@H]5CCNC5)c5ccncc5n4)ccn3)cn2)CC1 [Example 320, (2-{2-[6-(4-Methyl-piperazin-1-yl)-pyridin-3-ylamino]-pyridin-4-yl}-pyrido[3,4-d]pyrimidin-4-yl)-(R)-pyrrolidin-3-yl-amine] | > 7.00 |
| FC(F)(F)[C@H]1CN(c2nc(-c3ccnc(Cl)c3)nc3cncc(C4CC4)c23)CCN1 [Example 660, 2-(2-Chloro-pyridin-4-yl)-5-cyclopropyl-4-((R)-3-trifluoromethyl-piperazin-1-yl)-pyrido[3,4-d]pyrimidine] | 4.40 to 5.00 |
| Cn1ccc(Nc2cc(-c3nc(N4CCNCC4)c4c(C5CC5)cncc4n3)ccn2)n1 [Example 600, [4-(5-Cyclopropyl-4-piperazin-1-yl-pyrido[3,4-d]pyrimidin-2-yl)-pyridin-2-yl]-(l-methyl-1H-pyrazol-3-yl)-amine] | 5.00 to 6.00 |
| CC1(C)CN(c2nc(-c3ccnc4[nH]c5ccccc5c34)nc3cncc(C4CC4)c23)CCN1 [Example 1255, 4-[5-Cyclopropyl-4-(3,3-dimethyl-piperazin-1-yl)-pyrido[3,4-d]pyrimidin-2-yl]-9H-pyrido[2,3-b]indole trifluoroacetic acid salt] | > 7.00 |
| COc1cncc2nc(-c3ccnc(NC(=O)CN4CCCCC4)c3)nc(N3CCNCC3)c12 [Example 210, N-[4-(5-Methoxy-4-piperazin-1-yl-pyrido[3,4-d]pyrimidin-2-yl)-pyridin-2-yl]-2-piperidin-1-yl-acetamide] | 6.00 to 7.00 |
| COc1ccc(Nc2cc(-c3nc(N4CCNCC4)c4c(C5CC5)cncc4n3)ccn2)cc1OC [Example 610, [4-(5-Cyclopropyl-4-piperazin-1-yl-pyrido[3,4-d]pyrimidin-2-yl)-pyridin-2-yl]-(3,4-dimethoxy-phenyl)-amine] | > 7.00 |
| Fc1cnc(Nc2cc(-c3nc(N4CCNCC4)c4c(C5CCC5)cncc4n3)ccn2)c(F)c1 [Example 783, [4-(5-Cyclobutyl-4-piperazin-1-yl-pyrido[3,4-d]pyrimidin-2-yl)-pyridin-2-yl]-(3,5-difluoro-pyridin-2-yl)-amine] | > 7.00 |
| CNC(=O)c1ccc(Nc2cc(-c3nc(N4CCNCC4)c4c(C5CC5)cncc4n3)ccn2)cc1 [Example 841, -[4-(5-Cyclopropyl-4-piperazin-1-yl-pyrido[3,4-d]pyrimidin-2-yl)-pyridin-2-ylamino]-N-methyl-benzamide] | > 7.00 |
| CC1(C)C(=O)Nc2nccc(-c3nc(N4CCNCC4)c4c(C5CC5)cncc4n3)c21 [Example 2211, 4-(5-Cyclopropyl-4-piperazin-1-yl-pyrido[3,4-d]pyrimidin-2-yl)-3,3-dimethyl-1,3-dihydro-pyrrolo[2,3-b]pyridin-2-one] | 5.00 to 6.00 |
| Fc1ccccc1-n1cc(Nc2cc(-c3nc(N4CCNCC4)c4c(C5CC5)cncc4n3)ccn2)cn1 [Example 817, [4-(5-Cyclopropyl-4-piperazin-1-yl-pyrido[3,4-d]pyrimidin-2-yl)-pyridin-2-yl]-[1-(2-fluoro-phenyl)-1H-pyrazol-4-yl]-amine] | > 7.00 |
| C[C@@H](Nc1cc(-c2nc(N3CCNC(C)(C)C3)c3c(C4CC4)cncc3n2)ccn1)C1CC1 [Example 2006, {4-[5-Cyclopropyl-4-(3,3-dimethyl-piperazin-1-yl)-pyrido[3,4-d]pyrimidin-2-yl]-pyridin-2-yl}-((R)-1-cyclopropyl-ethyl)-amine] | > 7.00 |
| COc1cncc2nc(-c3ccncc3)nc(N3CCN[C@@H](C(F)c4ccccc4)C3)c12 (stereo partly drawn) [Example 76, (3R)-3-[fluoro(phenyl)-methyl]-1-[5-methoxy-2-(pyridin-4-yl)-pyrido[3,4-d]-pyrimidin-4-yl]-piperazine] | > 7.00 |
| COc1ccc(CC(=O)Nc2cc(-c3nc(N4CCNCC4)c4c(OC)cncc4n3)ccn2)cc1 [Example 374, 2-(4-Methoxy-phenyl)-N-[4-(5-methoxy-4-piperazin-1-yl-pyrido[3,4-d]pyrimidin-2-yl)-pyridin-2-yl]-acetamide] | > 7.00 |
| COc1cncc2nc(-c3ccnc(NC4CCCC4)c3)nc(N3CCNCC3)c12 [Example 241, Cyclopentyl-[4-(5-methoxy-4-piperazin-1-yl-pyrido[3,4-d]pyrimidin-2-yl)-pyridin-2-yl]-amine] | > 7.00 |
| 4-{5-(4-Cyano-pyridin-2-ylamino)-2-[2-(4-cyano-pyridin-2-ylamino)-pyridin-4-yl]-pyrido[3,4-d]pyrimidin-4-yl}-piperazine [Example 249] | > 7.00 |
| COc1ccc(Nc2cc(-c3nc(N4CCNCC4)c4c(C5CC5)cncc4n3)ccn2)cn1 [Example 547, [4-(5-Cyclopropyl-4-piperazin-1-yl-pyrido[3,4-d]pyrimidin-2-yl)-pyridin-2-yl]-(6-methoxy-pyridin-3-yl)-amine] | > 7.00 |
| COc1cncc2nc(-c3ccnc(Nc4ncccc4F)c3)nc(N3CCNCC3)c12 [Example 411, (3-Fluoro-pyridin-2-yl)-[4-(5-methoxy-4-piperazin-1-yl-pyrido[3,4-d]pyrimidin-2-yl)-pyridin-2-yl]-amine] | > 7.00 |
| c1cc(-c2nc(N3CCNCC3)c3c(C4CC4)cncc3n2)cc(N[C@@H]2C[C@H]3CC[C@@H]2C3)n1 (racemic) [Example 695, (+/−)-(1RS,2RS,4SR)-Bicyclo[2.2.1]hept-2-yl-[4-(5-cyclopropyl-4-piperazin-1-yl-pyrido[3,4-d]pyrimidin-2-yl)-pyridin-2-yl]-amine] | > 7.00 |
| FC1(F)CCCC(Nc2cc(-c3nc(N4CCNCC4)c4c(C5CC5)cncc4n3)ccn2)C1 (stereo not drawn) [Example 673, [4-(5-Cyclopropyl-4-piperazin-1-yl-pyrido[3,4-d]pyrimidin-2-yl)-pyridin-2-yl]-(3,3-difluoro-cyclohexyl)-amine] | > 7.00 |
| COc1cncc2nc(-c3ccnc(Nc4cc(C#N)ccn4)c3)nc(N3CCNCC3)c12 [Example 352, 2-[4-(5-Methoxy-4-piperazin-1-yl-pyrido[3,4-d]pyrimidin-2-yl)-pyridin-2-ylamino]-isonicotinonitrile] | > 7.00 |
| Nc1cccc(-c2nccc3c(NC[C@@H](N)Cc4ccccc4)nc(-c4ccncc4)nc23)c1 [Example 109, N-[(2S)-2-amino-3-phenylpropyl]-8-(3-aminophenyl)-2-(pyridin-4-yl)pyrido[3,4-d]pyrimidin-4-amine] | 6.00 to 7.00 |
| Fc1cccc(F)c1Nc1cc(-c2nc(N3CCNC4(CC4)C3)c3c(C4CC4)cncc3n2)ccn1 [Example 829, {4-[5-Cyclopropyl-4-(4,7-diaza-spiro[2.5]oct-7-yl)-pyrido[3,4-d]pyrimidin-2-yl]-pyridin-2-yl}-(2,6-difluoro-phenyl)-amine] | > 7.00 |
| Fc1cc(F)c(Nc2cc(-c3nc(N[C@@H]4CCNC4)c4c(C5CC5)cncc4n3)ccn2)nc1F [Example 2056, {5-Cyclopropyl-2-[2-(3,5,6-tritluoro-pyridin-2-ylamino)-pyridin-4-yl]-pyrido[3,4-d]pyrimidin-4-yl}-(R)-pyrrolidin-3-yl-amine] | > 7.00 |
| FC(F)(F)Cn1cc(Cl)c(Nc2cc(-c3nc(N4CCNCC4)c4c(C5CC5)cncc4n3)ccn2)n1 [Example 2030, [4-Chloro-1-(2,2,2-trifluoro-ethyl)-1H-pyrazol-3-yl]-[4-(5-cyclopropyl-4-piperazin-1-yl-pyrido[3,4-d]pyrimidin-2-yl)-pyridin-2-yl]-amine] | > 7.00 |
| NC(=O)CN[C@H](CNc1nc(-c2ccncc2)nc2cnccc12)Cc1ccccc1 [Example 82, 2-{[(2S)-1-phenyl-3-{[2-(pyridin-4-yl)pyrido[3,4-d]pyrimidin-4-yl]amino}propan-2-yl]amino}acetamide] | 5.00 to 6.00 |
| FC(F)(F)C1(c2cc3c(-c4nc(N5CCNCC5)c5c(C6CC6)cncc5n4)ccnc3[nH]2)CC1 [Example 1238, 5-Cyclopropyl-4-piperazin-1-yl-2-[2-(1-trifluoromethyl-cyclopropyl)-1H-pyrrolo[2,3-b]pyridin-4-yl]-pyrido[3,4-d]pyrimidine] | > 7.00 |
| O[C@H]1c2ccccc2C[C@@H]1Nc1cc(-c2nc(N3CCNCC3)c3c(C4CC4)cncc3n2)ccn1 (relative stereo) [Example 2158, trans-2-[4-(5-Cyclopropyl-4-piperazin-1-yl-pyrido[3,4-d]pyrimidin-2-yl)-pyridin-2-ylamino]-indan-1-ol] | > 7.00 |
| NCC1CCN(c2nc(-c3ccnc(Nc4c(F)cccc4F)c3)nc3cncc(C4CC4)c23)CC1 [Example 696, {4-[4-(4-Aminomethyl-piperidin-1-yl)-5-cyclopropyl-pyrido[3,4-d]pyrimidin-2-yl]-pyridin-2-yl}-(2,6-difluoro-phenyl)-amine] | > 7.00 |
